Read-outs that look alike come from different tables or passages of the source.
Tests used:
CB1 receptor [1] = target: T1, CB1 receptor (Homo sapiens, UniProt P21554); experiment: cell-based
T1 construct: expressed in transfected cells
Source text: The CB1 and CB2 receptors are G-protein coupled receptors (GPCR), which influence cell function via the Gi-protein. These receptors modulate the activity of intracellular adenylate cyclase, which in turn produces the intracellular signal messenger cyclic-AMP (cAMP).
At baseline, or during non-ligand bound conditions, these receptors are constitutively active and tonically suppress adenylate cyclase activity. The binding of an agonist causes further receptor activation and produces additional suppression of adenylate cyclase activity. The binding of an inverse agonist inhibits the constitutive activity of the receptors and results in an increase in adenylate cyclase activity.
By monitoring intracellular adenylate cyclase activity, the ability of compounds to act as agonists or inverse agonists can be determined.
Test compounds were evaluated in SK-N-MC cells which, using standard transfection procedures, were stably transfected with human cDNA for pcDNA3-CRE β-gal and pcDNA3 CB1 receptor (human) or pcDNA3 CB2 receptor (human). By expressing CRE β-gal, the cells produced β-galactosidase in response to CRE promoter activation by cAMP. Cells expressing CRE β-gal and either the human CB1 or CB2 receptor will produce less β-galactosidase when treated with a CB1/CB2 agonist and will produce more β-galactosidase when treated with a CB1/CB2 inverse agonist.
The cells were grown in 96-well plates under standard cell culture conditions at 37° C. in a 5% CO2 atmosphere and culture media (wherein the media was supplemented with 2 mM L-glutamine, […] sodium pyruvate, 10% FBS (fetal bovine serum) and antibiotics).
The change in forskolin induced β-galactosidase activity was determined by setting a vehicle treated cell's activity value at 100% and expressing the β-galactosidase activity measured in a corresponding compound treated cell as a percent of the vehicle treated cell activity.
The EC50 value for functional activity for compounds tested was calculated by linear regression and was obtained from studies in which varying compound concentrations were used.
Where an EC50 value was not obtained for a test compound, the value shown (in %) represents change in functional activity and was obtained from a study in which one compound concentration was used.

CB2 receptor = target: T2, CB2 receptor (Homo sapiens, UniProt P34972); experiment: Binding assay for CB2 agonists or inverse agonists (SK-N-MC membranes, [3H]-CP-55,940); settings: for CB2 receptor binding percent inhibition: test concentration not stated
T2 construct: expressed in transfected cells
Procedure, shortened: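 Membranes from SK-N-MC cells stably expressing human CB2 were incubated with radioligand and test compounds for 90 min at 30 °C in Tris-HCl buffer, pH 7.5, with MgCl2, EDTA and fatty-acid-free BSA. Filter-bound radioactivity was counted; IC50 was derived by linear regression of percent inhibition.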

CB1 receptor [2] = target: T1, CB1 receptor; experiment: Binding assay for CB1 agonists or inverse agonists (SK-N-MC membranes, [3H]-CP-55,940); settings: for CB1 receptor binding percent inhibition: test concentration not stated; for CB1 receptor binding average percent inhibition: value shown is an average percent inhibition (footnote 5), concentration not given
Procedure, shortened: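 Membranes from SK-N-MC cells stably expressing human CB1 incubated with compound and [3H]-CP-55,940 ([…]) for 90 min at 30° C in Tris-HCl pH 7.5, MgCl2, EDTA, fatty-acid-free BSA. Non-specific binding defined with 10 uM WIN 55,212; filtration, scintillation count; IC50 by linear regression.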

[3] = forskolin induced β-galactosidase activity, SK-N-MC cells, read-out: CB1 Receptor Functional Inverse Agonist EC50
[4] = test concentration 1 μM (footnote 1), read-out: CB2 receptor binding percent inhibition
[5] = read-out: CB1 receptor binding percent inhibition, test concentration 1 μM (footnote 1)
[6] = CB1 Receptor Functional Inverse Agonist EC50, forskolin induced β-galactosidase activity, SK-N-MC cells
[7] = Cannabinoid CB1 Receptor Binding IC50, calculated by linear regression from percent inhibition at various test concentrations
[8] = calculated by linear regression from percent inhibition at various test concentrations, read-out: Cannabinoid CB1 Receptor Binding IC50

T2 sequence (P34972 whole entry): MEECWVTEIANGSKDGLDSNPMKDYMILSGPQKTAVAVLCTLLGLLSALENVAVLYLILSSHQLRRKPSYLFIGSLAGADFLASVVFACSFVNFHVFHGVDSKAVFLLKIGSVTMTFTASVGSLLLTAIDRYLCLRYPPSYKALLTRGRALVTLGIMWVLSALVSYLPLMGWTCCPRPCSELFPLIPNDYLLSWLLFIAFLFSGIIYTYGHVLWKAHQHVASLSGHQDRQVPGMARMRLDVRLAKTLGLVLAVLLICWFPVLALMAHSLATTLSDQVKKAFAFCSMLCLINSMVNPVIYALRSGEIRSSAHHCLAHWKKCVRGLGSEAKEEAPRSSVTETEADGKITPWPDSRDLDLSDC
T1 sequence (P21554 whole entry): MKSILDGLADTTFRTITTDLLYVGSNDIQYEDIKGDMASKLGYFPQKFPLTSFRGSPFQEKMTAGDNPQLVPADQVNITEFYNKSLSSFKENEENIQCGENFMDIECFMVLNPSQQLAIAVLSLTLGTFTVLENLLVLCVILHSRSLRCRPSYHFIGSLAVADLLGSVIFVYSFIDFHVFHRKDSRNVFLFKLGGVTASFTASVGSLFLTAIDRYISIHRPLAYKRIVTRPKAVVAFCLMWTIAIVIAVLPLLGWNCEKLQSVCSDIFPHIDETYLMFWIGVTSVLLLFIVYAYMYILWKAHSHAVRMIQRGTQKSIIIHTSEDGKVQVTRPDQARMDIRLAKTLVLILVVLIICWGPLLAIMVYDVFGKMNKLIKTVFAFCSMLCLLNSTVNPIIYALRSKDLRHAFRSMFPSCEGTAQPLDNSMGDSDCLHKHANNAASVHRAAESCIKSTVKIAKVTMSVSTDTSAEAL

Row | SMILES | EC50 (CB1 receptor [1]; [3]) [nM] | CB2 receptor binding percent inhibition (CB2 receptor) [%] | inhibition at 1 µM (CB1 receptor [2]; [5]) [%] | EC50 (CB1 receptor [1]; [6]) [nM] | IC50 (CB1 receptor [2]; [7]) [nM] | CB1 receptor binding average percent inhibition (CB1 receptor [2]) | further results
1 | O=C(NCc1ccc(C(F)(F)F)cc1)c1nn(-c2ccc(Cl)cc2Cl)c2c1CCCCC2Cc1ccc(Cl)cc1 (stereo not drawn) [Cpd 26, 8-(4-chloro-benzyl)-1-(2,4-dichloro-phenyl)-1,4,5,6,7,8-hexahydro-cycloheptapyrazole-3-carboxylic acid 4-trifluoromethyl-benzylamide] | 600 | 29 | 70 | – | – | – | inhibition at 1 µM (CB2 receptor; [4]): 35%; inhibition at 2 µM (CB2 receptor; test concentration 2 μM (footnote 6), read-out: CB2 receptor binding percent inhibition): 22%; inhibition at 2 µM (CB1 receptor [2]; read-out: CB1 receptor binding percent inhibition, test concentration 2 μM (footnote 6)): 55%; CB1 receptor binding percent inhibition (CB1 receptor [2]): 63%
2 | O=C(NN1CCCCC1)c1nn(-c2ccc(Cl)cc2Cl)c2c1CCCCC2Cc1cccc(Cl)c1 (stereo not drawn) [Cpd 28, 8-(3-chloro-benzyl)-1-(2,4-dichloro-phenyl)-1,4,5,6,7,8-hexahydro-cycloheptapyrazole-3-carboxylic acid piperidin-1-ylamide] | – | 11 | 65 | 50 | 100 | – | –
3 | Cn1nc(C(=O)N[C@H]2C3(C)CCC(C3)C2(C)C)c2c1C(Cc1ccccc1Cl)CCCC2 (stereo partly drawn) [Cpd 40, 8-(2-chloro-benzyl)-1-methyl-1,4,5,6,7,8-hexahydro-cycloheptapyrazole-3-carboxylic acid [(2S)-1,3,3-trimethyl-bicyclo[2.2.1]hept-2-yl]-amide] | – | 75 | 84 | – | 70 | – | EC50 (CB1 receptor [1]; CB1 Receptor Functional Agonist EC50, SK-N-MC cells, forskolin induced β-galactosidase activity): 100 nM; inhibition at 0.015 µM (CB2 receptor; read-out: CB2 receptor binding percent inhibition, test concentration 0.015 μM (footnote 7)): 65%; inhibition at 1 µM (CB2 receptor; read-out: CB2 receptor binding percent inhibition, test concentration 1 μM (footnote 1)): 84%
4 | O=C(NC1CCC1)c1nn(-c2ccc(Cl)cc2Cl)c2c1CCCCC2Cc1cccc(F)c1 (stereo not drawn) [Cpd 41, 1-(2,4-dichloro-phenyl)-8-(3-fluoro-benzyl)-1,4,5,6,7,8-hexahydro-cycloheptapyrazole-3-carboxylic acid cyclobutylamide] | – | 46 | 68 | 100 | 500 | – | –
5 | CC12CCC(C1)C(C)(C)[C@H]2NC(=O)c1nn(-c2ccc(Cl)cc2Cl)c2c1CCCCC2Cc1cccc(F)c1 (stereo partly drawn) [Cpd 42, 1-(2,4-dichloro-phenyl)-8-(3-fluoro-benzyl)-1,4,5,6,7,8-hexahydro-cycloheptapyrazole-3-carboxylic acid [(2S)-1,3,3-trimethyl-bicyclo[2.2.1]hept-2-yl]-amide] | 300 | – | 65 | – | – | – | IC50 (CB2 receptor; calculated by linear regression from percent inhibition at various test concentrations, read-out: Cannabinoid CB2 Receptor Binding IC50): 300 nM; inhibition at 1 µM (CB2 receptor; [4]): 52%; IC50 (CB1 receptor [2]; [8]): 300 nM
6 | C[C@H](NC(=O)c1nn(C2CCCCC2)c2c1CCCCC2Cc1cccc(F)c1)c1ccccc1 (stereo partly drawn) [Cpd 45, 1-cyclohexyl-8-(3-fluoro-benzyl)-1,4,5,6,7,8-hexahydro-cycloheptapyrazole-3-carboxylic acid [(1S)-1-phenyl-ethyl]-amide] | 1100 | 42 | 54 | – | – | – | IC50 (CB1 receptor [2]; [8]): 700 nM
7 | C[C@H](NC(=O)c1nn(Cc2ccccc2)c2c1CCCCC2c1ccccc1)c1ccccc1 (stereo partly drawn) [Cpd 48, 1-benzyl-8-phenyl-1,4,5,6,7,8-hexahydro-cycloheptapyrazole-3-carboxylic acid [(1S)-1-phenyl-ethyl]-amide] | 300 | 42 | 63 | – | – | – | IC50 (CB1 receptor [2]; [8]): 300 nM
8 | O=C(N[C@@H](CO)c1ccccc1)c1nn(C2CCCCC2)c2c1CCCCC2Cc1cccc(F)c1 (stereo partly drawn) [Cpd 55, 1-cyclohexyl-8-(3-fluoro-benzyl)-1,4,5,6,7,8-hexahydro-cycloheptapyrazole-3-carboxylic acid [(1R)-2-hydroxy-1-phenyl-ethyl]-amide] | – | 18 | – | 400 | – | – | inhibition at 1 µM (CB1 receptor [2]; read-out: CB1 receptor binding percent inhibition): 50%
9 | CC12CCC(C1)C(C)(C)[C@H]2NC(=O)c1nn(C2CCCCC2)c2c1CCCCC2Cc1ccc(F)cc1 (stereo partly drawn) [Cpd 58, 1-cyclohexyl-8-(4-fluoro-benzyl)-1,4,5,6,7,8-hexahydro-cycloheptapyrazole-3-carboxylic acid [(2S)-1,3,3-trimethyl-bicyclo[2.2.1]hept-2-yl]-amide] | – | 74 | 75 | – | – | – | EC50 (CB1 receptor [1]; SK-N-MC cells, forskolin induced β-galactosidase activity, read-out: CB1 Receptor Functional Agonist EC50): 1400 nM; inhibition at 0.015 µM (CB2 receptor; test concentration 0.015 μM (footnote 7), read-out: CB2 receptor binding percent inhibition): 65%; inhibition at 1 µM (CB2 receptor; [4]): 98%; IC50 (CB1 receptor [2]; [8]): 200 nM
10 | C[C@H](NS(=O)(=O)/C=C/c1nn(C2CCCCC2)c2c1CCCCC2Cc1cccc(F)c1)c1ccccc1 (stereo partly drawn) [Cpd 75, (2E)-2-[1-cyclohexyl-8-(3-fluoro-benzyl)-1,4,5,6,7,8-hexahydro-cycloheptapyrazol-3-yl]-ethenesulfonic acid [(1S)-1-phenyl-ethyl]-amide] | – | 27 | – | 70 | 200 | 77% | –
11 | COC(=O)[C@@H](Cc1ccc(F)cc1)NC(=O)c1nn(-c2ccc(Cl)cc2Cl)c2c1CCCC[C@@H]2Cc1cccc(F)c1 [Cpd 77, (2R)-2-{[(8R)-1-(2,4-dichloro-phenyl)-8-(3-fluoro-benzyl)-1,4,5,6,7,8-hexahydro-cycloheptapyrazole-3-carbonyl]-amino}-3-(4-fluoro-phenyl)-propionic acid methyl ester] | – | 28 | 44 | 100 | – | 57% | CB1 receptor binding percent inhibition (CB1 receptor [2]): 51%
12 | COC(=O)[C@@H](Cc1ccc(F)cc1)NC(=O)c1nn(-c2ccc(Cl)cc2Cl)c2c1CCCC[C@H]2Cc1cccc(F)c1 [Cpd 78, (2R)-2-{[(8S)-1-(2,4-dichloro-phenyl)-8-(3-fluoro-benzyl)-1,4,5,6,7,8-hexahydro-cycloheptapyrazole-3-carbonyl]-amino}-3-(4-fluoro-phenyl)-propionic acid methyl ester] | – | 23 | – | 200 | 400 | 59% | –
13 | CCOC(=O)[C@H]1C2C=CC(C2)[C@H]1NC(=O)c1nn(-c2ccc(Cl)cc2Cl)c2c1CCCCC2Cc1cccc(F)c1 (stereo partly drawn) [Cpd 79, (2S,3R)-3-{[1-(2,4-dichloro-phenyl)-8-(3-fluoro-benzyl)-1,4,5,6,7,8-hexahydro-cycloheptapyrazole-3-carbonyl]-amino}-bicyclo[2.2.1]hept-5-ene-2-carboxylic acid ethyl ester] | – | 29 | – | 500 | – | ^(5)37% | –
14 | COC(=O)[C@@H](Cc1ccc(O)cc1)NC(=O)c1nn(-c2ccc(Cl)cc2Cl)c2c1CCCCC2Cc1cccc(F)c1 (stereo partly drawn) [Cpd 80, (2R)-2-{[1-(2,4-dichloro-phenyl)-8-(3-fluoro-benzyl)-1,4,5,6,7,8-hexahydro-cycloheptapyrazole-3-carbonyl]-amino}-3-(4-hydroxy-phenyl)-propionic acid methyl ester] | – | 23 | – | 60 | 700 | 51% | –
15 | COC(=O)[C@@H](Cc1ccc(O)cc1)NC(=O)c1nn(-c2ccc(Cl)cc2Cl)c2c1CCCCC2Cc1ccc(F)cc1 (stereo partly drawn) [Cpd 81, (2R)-2-{[1-(2,4-dichloro-phenyl)-8-(4-fluoro-benzyl)-1,4,5,6,7,8-hexahydro-cycloheptapyrazole-3-carbonyl]-amino}-3-(4-hydroxy-phenyl)-propionic acid methyl ester] | 300 | 28 | – | – | – | ^(5)42% | –

From patent US8378117B2 (priority 2005, dated 2013)
